This data set has as its system rodent carcinogenicity bioassays, tumor incidence. Description: CCRIS carcinogenicity studies. The settings on record: Dose: 0, Dose: 0. The essentials: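 NCI-built, expert-reviewed records of carcinogenicity and related test outcomes (mutagenicity, tumor promotion/inhibition) compiled from published and report sources, historical span 1985-2011, not updated.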

The values below come from PubChem BioAssay AID1259411 (Chemical Carcinogenesis Research Information System (CCRIS), 2018).

The structures appear in SMILES notation. Calls of active or inactive are those of the source. No rule for the calls is given here.

`OC1c2cccc3c4ccccc4c4c5ccccc5cc(c4c23)C1O` (centres undefined): the carcinogen call (Species: MOUSE, Strain/Sex: SWISS/FEMALE, Route: DERMAL, 1, 4 NMOL IN 100 µL ACETONE 2/WK FOR 40 WK (STUDY DURATION: 48 WK), 1, 4 NMOL IN 100 µL ACETONE 2/WK FOR 40 WK (STUDY DURATION: 48 WK)) is “inactive; negative”.
In the case of `CN(C)c1ccc2nc3ccc(=[N+](C)C)cc-3sc2c1`, the carcinogen call reads like this: (Species: Mouse, Strain/Sex: B6C3F1/Female, Route: Oral, 2.5, 12.5, 25 mg/kg 5 d per wk for 2 yr, 2.5, 12.5, 25 mg/kg 5 d per wk for 2 yr, Tumor Site: Type of Lesion: Lymphatic system: Malignant lymphomas (6/50; 4/50; 9/50; 12/50) (Marginal increase)) “equivocal”; (Species: Mouse, Strain/Sex: B6C3F1/Male, Route: Oral, 2.5, 12.5, 25 mg/kg 5 d per wk for 2 yr, 2.5, 12.5, 25 mg/kg 5 d per wk for 2 yr, Tumor Site: Type of Lesion: Small intestine: Carcinomas (0/50; 1/50; 2/50; 4/50), Adenomas or carcinomas (1/50; 2/50; 4/50; 6/50) (incidences not st, Tumor Site: Type of Lesion: Small intestine: Carcinomas (0/50; 1/50; 2/50; 4/50), Adenomas or carcinomas (1/50; 2/50; 4/50; 6/50) (incidences not st) “active; positive (for lymphoma only at high does) (ntp describes results as some evidenc”; (Species: Rat, Strain/Sex: F344/Female, Route: Oral, 5, 25, 50 mg/kg 5 d per wk for 2 yr, 5, 25, 50 mg/kg 5 d per wk for 2 yr) “inactive; negative”; (Species: Rat, Strain/Sex: F344/Male, Route: Oral, 5, 25, 50 mg/kg 5 d per wk for 2 yr, 5, 25, 50 mg/kg 5 d per wk for 2 yr, Tumor Site: Type of Lesion: Pancreas: Pancreatic islet adenomas (4/50; 9/50; 12/50; 8/50), Pancreatic islet adenomas or carcinomas (4/50, 9/50, 14/5, Tumor Site: Type of Lesion: Pancreas: Pancreatic islet adenomas (4/50; 9/50; 12/50; 8/50), Pancreatic islet adenomas or carcinomas (4/50, 9/50, 14/5) “active; positive (statistically significant only at 25 mg/kg dose) (ntp describes as som”.
In the case of `Oc1ccccc1-c1ccccc1`, the carcinogen call is “inactive; negative” (Species: GUINEA PIG, Strain/Sex: HARTLEY/MALE, Route: ORAL, 2% IN DIET (STUDY DURATION: 48 WK)); “inactive; negative” (Species: HAMSTER, Strain/Sex: SYRIAN/MALE, Route: ORAL, 2% IN DIET (STUDY DURATION: 48 WK)); “inactive; negative” (Species: MOUSE, Strain/Sex: B6C3F1/FEMALE, Route: ORAL, 0.5, 1, 2% IN DIET FOR 96 WK (STUDY DURATION: 104 WK), 0.5, 1, 2% IN DIET FOR 96 WK (STUDY DURATION: 104 WK)); “inactive; negative” (Species: MOUSE, Strain/Sex: B6C3F1/FEMALE, Route: ORAL, 0.5, 1, 2% IN THE DIET FOR 96 WK (STUDY DURATION: 104 WK), 0.5, 1, 2% IN THE DIET FOR 96 WK (STUDY DURATION: 104 WK)); “inactive; negative” (Species: MOUSE, Strain/Sex: B6C3F1/MALE, Route: ORAL, 0.5, 1, 2% IN DIET FOR 96 WK (STUDY DURATION: 104 WK), 0.5, 1, 2% IN DIET FOR 96 WK (STUDY DURATION: 104 WK)); “inactive; negative” (Species: MOUSE, Strain/Sex: B6C3F1/MALE, Route: ORAL, 0.5, 1, 2% IN THE DIET FOR 96 WK (STUDY DURATION: 104 WK), 0.5, 1, 2% IN THE DIET FOR 96 WK (STUDY DURATION: 104 WK)). Also, the carcinogen call was “inactive; negative” (Species: MOUSE, Strain/Sex: B6C3F1/MALE, Route: ORAL, 2% IN DIET (STUDY DURATION: 48 WK)); “inactive; negative” (Species: MOUSE, Strain/Sex: CD-1/FEMALE, Route: DERMAL, 55.5 MG/ANIMAL IN 0.1 ML ACETONE 3 D/WK FOR 102 WK); “inactive; negative” (Species: MOUSE, Strain/Sex: CD-1/MALE, Route: DERMAL, 55.5 MG/ANIMAL IN 0.1 ML ACETONE 3 D/WK FOR 102 WK); “active; positive” (Species: RAT, Strain/Sex: F344/MALE, Route: ORAL, 0.125, 0.25, 0.5, 1.0, 2.0, 4.0% IN DIET FOR 91 WK, 0.125, 0.25, 0.5, 1.0, 2.0, 4.0% IN DIET FOR 91 WK, Tumor Site: Type of Lesion: KIDNEY: TRANSITIONAL CELL CARCINOMA, URINARY BLADDER: TRANSITIONAL CELL CARCINOMA); “active; positive” (Species: RAT, Strain/Sex: F344/MALE, Route: ORAL, 0.625, 1.25, 2.5% IN PELLET DIET FOR STUDY DURATION (STUDY DURATION: 91 WK), 0.625, 1.25, 2.5% IN PELLET DIET FOR STUDY DURATION (STUDY DURATION: 91 WK), Tumor Site: Type of Lesion: BLADDER: TRANSITIONAL CELL PAPILLOMA, TRANSITIONAL CELL CARCINOMA); “inactive; negative” (Species: RAT, Strain/Sex: F344/MALE, Route: ORAL, 2% IN DIET (STUDY DURATION: 48 WK)). Further, the carcinogen call (Species: RAT, Strain/Sex: F344/MALE, Route: ORAL, 2% IN DIET FOR 104 WK (STUDY DURATION: 104 WK), Tumor Site: Type of Lesion: BLADDER: CARCINOMA) was “active; positive”.
As for `O=C1OC2(c3ccc(O)cc3Oc3cc(O)ccc32)c2ccccc21`, the carcinogen call is, setting by setting: (Species: MOUSE, Strain/Sex: SWISS-WEBSTER/FEMALE, Route: DERMAL, 1% IN 0.1 ML 0.1% SODIUM LAURYL SULFATE 1/WK FOR 18 MO (STUDY DURATION: 18 MO)) “inactive; negative”; (Species: MOUSE, Strain/Sex: SWISS-WEBSTER/MALE, Route: DERMAL, 1% IN 0.1 ML 0.1% SODIUM LAURYL SULFATE 1/WK FOR 18 MO (STUDY DURATION: 18 MO)) “inactive; negative”.
With `C=CC(OCC)OCC`, the carcinogen call reads like this: (Species: HAMSTER, Strain/Sex: SYRIAN/MALE, Route: GAVAGE, 2 MG/WK FOR 54 OR 64 WK (STUDY DURATION: 92 WK)) “inactive; negative”; (Species: RAT, Strain/Sex: F344/FEMALE, Route: ORAL, 470, 1200 MG/L IN DRINKING WATER 5 D/WK FOR 100 WK (STUDY DURATION: 130 WK), 470, 1200 MG/L IN DRINKING WATER 5 D/WK FOR 100 WK (STUDY DURATION: 130 WK)) “inactive; negative”; (Species: RAT, Strain/Sex: F344/MALE, Route: ORAL, 470, 1200 MG/L IN DRINKING WATER 5 D/WK FOR 100 WK (STUDY DURATION: 130 WK), 470, 1200 MG/L IN DRINKING WATER 5 D/WK FOR 100 WK (STUDY DURATION: 130 WK)) “inactive; negative”.
With `O=C(OOC(=O)c1ccccc1)c1ccccc1`, under “Species: MOUSE, Strain/Sex: SENCAR/FEMALE, Route: DERMAL, 0.2 ML OF 100 MG/ML SOLUTION IN ACETONE 2 D/WK FOR 51 WK (STUDY DURATION: 52 WK), Tumor Site: Type of Lesion: SKIN: SQUAMOUS CELL CARCINOMA OR EPIDERMAL HYPERPLASIA”, the carcinogen call is “active; positive”.
